From ChEMBL document CHEMBL5584318, “Targeting Solvent-Front Mutations for Kinase Drug Discovery: From Structural Basis to Design Strategies” (J Med Chem, 2024)

Assay: Half life in human
Type: ADME

half-life | SMILES
315 min | C[C@@H](Nc1ccn2ncc(-c3cnn(C)c3)c2n1)c1cc(F)ccc1OCC(F)F
3 min | Cn1cc(-c2cnn3ccc(N4CCC[C@@H]4c4cc(F)ccc4F)nc23)cn1
8.3 min | Cn1cc(-c2cnn3ccc(N4CCC[C@@H]4c4cc(F)ccc4OCC(F)F)nc23)cn1
